{
  "source": "patent US11672757B2",
  "about": "“Hot melt extrusion for pharmaceutical vaginal film products” (UNIVERSITY OF PITTSBURGH-OF THE COMMONWEALTH SYSTEM OF …, priority 2017, dated 2023)",
  "key": {"TZM-bl cells": {"tested_on": "TZM-bl cells", "type": "cell-based", "description": "A DPV film was dissolved in 2 mL of saline and ten-fold serial dilutions were made. The DPV drug substance stock solution (1000 nM) was mixed in DMSO and serially diluted in DMEM with 10% BSA supplemented with antibiotics, which is the medium used in the TZM-bl assay. All dilution samples were added in triplicates to the TZM-bl cells that were plated. […] For cellular toxicity evaluation, similar set up of the experiment was conducted. Except that for toxicity study, the cells were not exposed to the virus. In this study the cells were exposed to CellTiter-Glo, and luminescence signal was measured. Cellular viability was determined based on the deviation from the cell-only control (Nixon, B., et al., Griffithsin protects mice from genital herpes by preventing cell-to-cell spread. J. Virol., 2013, 87(11):6257-6269)."}, "[1]": {"tested_on": "wild type and resistant mutant HIV", "details": "cited from earlier work"}, "[2]": {"details": "pH 9; cited from earlier work"}, "human cervical explants": {"tested_on": "human cervical explants", "details": "cited from earlier work"}, "rabbit model": {"tested_on": "rabbit model", "details": "in vivo rabbit model; cited from earlier work"}, "[3]": {"tested_on": "G. vaginalis (ATCC 14018)", "experiment": "Zone of inhibition on HBT plate lawn", "type": "cell-based, Gardnella vaginalis", "details": "37° C., 6% CO2, 48 hours", "method": "To test the bioactivity of metronidazole film, Gardnella vaginalis (G. vaginilis) (ATCC 14018) was plated on HBT plates to form a lawn. A metronidazole film was placed in the middle of the plated bacteria and plates were incubated at 37° C. with 6% CO2 for 48 hours. Post incubation, the plates were visually inspected for the formation of a zone of inhibition. Placebo films and metronidazole drug substance were prepared and tested in the same manner as the controls. […] This confirms that G. vaginilis growth is inhibited by the presence of both the metronidazole drug substance alone and within the film. On the other hand, G. vaginilis was not affected by the placebo film.\nTo test the bioactivity of bacterial/metronidazole combination film, G. vaginalis (ATCC 14018) was plated on Human Blood Tween Bilayer (HBT) plates to form a lawn. Bacteria/metronidazole film was placed in the middle of the HBT plated bacteria and plates were incubated at 37° C. with 6% CO2 for 48 hours. Post incubation, the plates were visually inspected for the formation of a zone of inhibition and L. jensenii growth. Placebo films, metronidazole drug substance, and bacterial loaded film were prepared and tested in the same manner as the controls. […] Therefore, the desired in vivo antimicrobial and probiotic effects of the combination film were confirmed in vitro. […]"}},
  "data": [
    {"compound": "Cc1cc(C)c(Nc2ccnc(Nc3ccc(C#N)cc3)n2)c(C)c1", "note": "[DPV, Dapivirine]", "values": [
      {"measurement": "cellular toxicity", "setting": "TZM-bl cells", "result": "no cellular toxicity"},
      {"measurement": "EC50", "setting": "[1]", "result": 0.3, "unit": "ng/mL"},
      {"measurement": "EC90", "setting": "[1]", "result": 0.9, "unit": "ng/mL"},
      {"measurement": "logP", "setting": "[2]", "result": 5.27}
    ]},
    {"compound": "Griffithsin [GRFT]", "values": [
      {"measurement": "safety", "setting": "human cervical explants", "result": "safe"},
      {"measurement": "safety", "setting": "rabbit model", "result": "safe"}
    ]},
    {"compound": "Cc1ncc([N+](=O)[O-])n1CCO", "note": "[Metronidazole]", "values": [
      {"measurement": "zone of inhibition", "setting": "[3]", "result": "~1.5", "unit": "cm"}
    ]}
  ]
}
